In article PMC8279981, “A first-in-human, phase 1 study of the NEDD8 activating enzyme E1 inhibitor TAS4464 in patients with advanced solid tumors” (Investigational New Drugs, 2021):

System: patients with advanced or metastatic solid tumors
Assay: Phase 1 study: treatment-related adverse events (NCI CTCAE v4.03)
Format: in vivo, human
Description: The highest non-severely toxic dose was derived from a dog toxicology study and was used to calculate a clinical starting dose of 10 mg/m^2, which corresponds to one-sixth of the human-equivalent dose. The maximum tolerated dose (MTD) of TAS4464 was investigated using an accelerated titration design. Initially, the starting TAS4464 dose was 10 mg/m^2 and was followed by an initial accelerated stage (i.e., weekly dosing phase) with 100% dose-step increments (level 1: 10 mg/m^2, level 2: 20 mg/m^2, level 3: 40 mg/m^2, and level 4: 56 mg/m^2). The 100% dose-step increments continued until the occurrence of a grade ≥ 2 drug-related toxicity within Cycle 1; dose-limiting toxicity (DLT) within Cycle 1; the next dose level reaching 60 mg/m^2; or any safety concerns. Thereafter, 40% increments were employed in the standard stage.
In the standard stage, three to six patients were to be enrolled, and the dose was escalated in 40% increments if none of the first three patients experienced a DLT. If one patient experienced a DLT, three additional patients were to be enrolled at the same dose level. If two of three or two of six patients experienced a DLT, the dose escalation was to be ceased. […] Additionally, DLT criteria regarding abnormal liver function and discontinuation criteria for study drug administration were added. The TAS4464 dose level for Day 1 of Cycle 1 was then set to 40 mg/m^2 (level 3).
Therefore, TAS4464 was administered every 7 days by 1-h intravenous infusion (± 10 min) at the dose assigned to each level. Study treatment was repeated every 28 days. The dosing regimens of each cohort are summarized in Supplementary Fig. 1.
Secondary objectives included assessment of AEs, treatment-related AEs, objective response rate (ORR), disease control rate (DCR), progression-free survival (PFS), and PK, pharmacodynamic, and pharmacogenomic (PGx) parameters with TAS4464 administration. The National Cancer Institute Common Terminology Criteria for Adverse Events (NCI CTCAE) v4.03 [17] was used to assess the severity of AEs. […] RECIST v1.1 [16] was used to determine clinical response, and all computed tomography images were assessed by the physician at the study site after completion of the imaging procedure. The ORR was defined as the percentage of patients with the best overall response of complete response (CR) or partial response (PR). The DCR was the percentage of patients with a best overall response of CR, PR, stable disease (SD), or non-CR/non-progressive disease (PD). PFS was defined as the time from the date of enrollment until the date of investigator-assessed radiological disease progression or death due to any cause, whichever occurred first.

[1] = All-grade, weekly dosing Level 1 (10 mg/m^2), n = 1
[2] = All-grade, weekly dosing Level 2 (20 mg/m^2), n = 1
[3] = All-grade, weekly dosing Level 3 (40 mg/m^2), n = 3
[4] = All-grade, weekly dosing Level 4 (56 mg/m^2), n = 5
[5] = All-grade, weekly dosing with lead-in Level 3 (20 → 40 mg/m^2), n = 3
[6] = All-grade, weekly dosing with lead-in Level 4 (20 → 56 mg/m^2), n = 3

## CCOc1cccc(F)c1C#Cc1cn([C@@H]2O[C@H](CNS(N)(=O)=O)[C@@H](O)[C@H]2O)c2ncnc(N)c12 [TAS4464]
10 or 20 mg/m^2 weekly doses
  Grade ≥ 2 abnormal liver function tests: did not occur
40 and 56 mg/m^2 weekly doses
  Grade ≥ 2 abnormal liver function tests: five patients
ALT increased, weekly dosing level 4
  AEs leading to dose reduction: one patient each
AST and ALT increased, weekly dosing with lead-in period level 4
  AEs leading to treatment discontinuation: one patient each
All-grade, Total, N = 16
  ALP increased (treatment-related adverse event): 7 (43.8) n (%)
  ALT increased (treatment-related adverse event): 11 (68.8) n (%)
  AST increased (treatment-related adverse event): 10 (62.5) n (%)
  Anemia (treatment-related adverse event): 3 (18.8) n (%)
  Blood bilirubin increased (treatment-related adverse event): 3 (18.8) n (%)
  Decreased appetite (treatment-related adverse event): 5 (31.3) n (%)
  Diarrhea (treatment-related adverse event): 3 (18.8) n (%)
  Fatigue (treatment-related adverse event): 2 (12.5) n (%)
  GGT increased (treatment-related adverse event): 4 (25.0) n (%)
  Hypoalbuminemia (treatment-related adverse event): 2 (12.5) n (%)
  Malaise (treatment-related adverse event): 3 (18.8) n (%)
  Nausea (treatment-related adverse event): 7 (43.8) n (%)
  Neuropathy peripheral (treatment-related adverse event): 2 (12.5) n (%)
  Pyrexia (treatment-related adverse event): 2 (12.5) n (%)
  Rash (treatment-related adverse event): 3 (18.8) n (%)
  Vomiting (treatment-related adverse event): 4 (25.0) n (%)
  WBC decreased (treatment-related adverse event): 3 (18.8) n (%)
[1]
  ALP increased (treatment-related adverse event): 0 n (%)
  ALT increased (treatment-related adverse event): 1 (100.0) n (%)
  AST increased (treatment-related adverse event): 1 (100.0) n (%)
  Anemia (treatment-related adverse event): 0 n (%)
  Blood bilirubin increased (treatment-related adverse event): 0 n (%)
  Decreased appetite (treatment-related adverse event): 0 n (%)
  Diarrhea (treatment-related adverse event): 0 n (%)
  Fatigue (treatment-related adverse event): 0 n (%)
  GGT increased (treatment-related adverse event): 0 n (%)
  Hypoalbuminemia (treatment-related adverse event): 1 (100.0) n (%)
  Malaise (treatment-related adverse event): 0 n (%)
  Nausea (treatment-related adverse event): 0 n (%)
  Neuropathy peripheral (treatment-related adverse event): 0 n (%)
  Pyrexia (treatment-related adverse event): 0 n (%)
  Rash (treatment-related adverse event): 0 n (%)
  Vomiting (treatment-related adverse event): 0 n (%)
  WBC decreased (treatment-related adverse event): 0 n (%)
[2]
  ALP increased (treatment-related adverse event): 0 n (%)
  ALT increased (treatment-related adverse event): 1 (100.0) n (%)
  AST increased (treatment-related adverse event): 0 n (%)
  Anemia (treatment-related adverse event): 0 n (%)
  Blood bilirubin increased (treatment-related adverse event): 0 n (%)
  Decreased appetite (treatment-related adverse event): 0 n (%)
  Diarrhea (treatment-related adverse event): 0 n (%)
  Fatigue (treatment-related adverse event): 0 n (%)
  GGT increased (treatment-related adverse event): 0 n (%)
  Hypoalbuminemia (treatment-related adverse event): 0 n (%)
  Malaise (treatment-related adverse event): 0 n (%)
  Nausea (treatment-related adverse event): 0 n (%)
  Neuropathy peripheral (treatment-related adverse event): 0 n (%)
  Pyrexia (treatment-related adverse event): 0 n (%)
  Rash (treatment-related adverse event): 0 n (%)
  Vomiting (treatment-related adverse event): 0 n (%)
  WBC decreased (treatment-related adverse event): 0 n (%)
[3]
  ALP increased (treatment-related adverse event): 2 (66.7) n (%)
  ALT increased (treatment-related adverse event): 1 (33.3) n (%)
  AST increased (treatment-related adverse event): 1 (33.3) n (%)
  Anemia (treatment-related adverse event): 0 n (%)
  Blood bilirubin increased (treatment-related adverse event): 1 (33.3) n (%)
  Decreased appetite (treatment-related adverse event): 2 (66.7) n (%)
  Diarrhea (treatment-related adverse event): 1 (33.3) n (%)
  Fatigue (treatment-related adverse event): 1 (33.3) n (%)
  GGT increased (treatment-related adverse event): 1 (33.3) n (%)
  Hypoalbuminemia (treatment-related adverse event): 1 (33.3) n (%)
  Malaise (treatment-related adverse event): 1 (33.3) n (%)
  Nausea (treatment-related adverse event): 2 (66.7) n (%)
  Neuropathy peripheral (treatment-related adverse event): 0 n (%)
  Pyrexia (treatment-related adverse event): 0 n (%)
  Rash (treatment-related adverse event): 0 n (%)
  Vomiting (treatment-related adverse event): 1 (33.3) n (%)
  WBC decreased (treatment-related adverse event): 1 (33.3) n (%)
[4]
  ALP increased (treatment-related adverse event): 4 (80.0) n (%)
  ALT increased (treatment-related adverse event): 5 (100.0) n (%)
  AST increased (treatment-related adverse event): 4 (80.0) n (%)
  Anemia (treatment-related adverse event): 1 (20.0) n (%)
  Blood bilirubin increased (treatment-related adverse event): 2 (40.0) n (%)
  Decreased appetite (treatment-related adverse event): 2 (40.0) n (%)
  Diarrhea (treatment-related adverse event): 2 (40.0) n (%)
  Fatigue (treatment-related adverse event): 1 (20.0) n (%)
  GGT increased (treatment-related adverse event): 3 (60.0) n (%)
  Hypoalbuminemia (treatment-related adverse event): 0 n (%)
  Malaise (treatment-related adverse event): 2 (40.0) n (%)
  Nausea (treatment-related adverse event): 4 (80.0) n (%)
  Neuropathy peripheral (treatment-related adverse event): 2 (40.0) n (%)
  Pyrexia (treatment-related adverse event): 0 n (%)
  Rash (treatment-related adverse event): 2 (40.0) n (%)
  Vomiting (treatment-related adverse event): 2 (40.0) n (%)
  WBC decreased (treatment-related adverse event): 1 (20.0) n (%)
[5]
  ALP increased (treatment-related adverse event): 0 n (%)
  ALT increased (treatment-related adverse event): 1 (33.3) n (%)
  AST increased (treatment-related adverse event): 2 (66.7) n (%)
  Anemia (treatment-related adverse event): 1 (33.3) n (%)
  Blood bilirubin increased (treatment-related adverse event): 0 n (%)
  Decreased appetite (treatment-related adverse event): 1 (33.3) n (%)
  Diarrhea (treatment-related adverse event): 0 n (%)
  Fatigue (treatment-related adverse event): 0 n (%)
  GGT increased (treatment-related adverse event): 0 n (%)
  Hypoalbuminemia (treatment-related adverse event): 0 n (%)
  Malaise (treatment-related adverse event): 0 n (%)
  Nausea (treatment-related adverse event): 1 (33.3) n (%)
  Neuropathy peripheral (treatment-related adverse event): 0 n (%)
  Pyrexia (treatment-related adverse event): 2 (66.7) n (%)
  Rash (treatment-related adverse event): 0 n (%)
  Vomiting (treatment-related adverse event): 1 (33.3) n (%)
  WBC decreased (treatment-related adverse event): 0 n (%)
[6]
  ALP increased (treatment-related adverse event): 1 (33.3) n (%)
  ALT increased (treatment-related adverse event): 2 (66.7) n (%)
  AST increased (treatment-related adverse event): 2 (66.7) n (%)
  Anemia (treatment-related adverse event): 1 (33.3) n (%)
  Blood bilirubin increased (treatment-related adverse event): 0 n (%)
  Decreased appetite (treatment-related adverse event): 0 n (%)
  Diarrhea (treatment-related adverse event): 0 n (%)
  Fatigue (treatment-related adverse event): 0 n (%)
  GGT increased (treatment-related adverse event): 0 n (%)
  Hypoalbuminemia (treatment-related adverse event): 0 n (%)
  Malaise (treatment-related adverse event): 0 n (%)
  Nausea (treatment-related adverse event): 0 n (%)
  Neuropathy peripheral (treatment-related adverse event): 0 n (%)
  Pyrexia (treatment-related adverse event): 0 n (%)
  Rash (treatment-related adverse event): 1 (33.3) n (%)
  Vomiting (treatment-related adverse event): 0 n (%)
  WBC decreased (treatment-related adverse event): 1 (33.3) n (%)
Grade ≥ 3, Total, N = 16
  ALP increased (treatment-related adverse event): 1 (6.3) n (%)
  ALT increased (treatment-related adverse event): 5 (31.3) n (%)
  AST increased (treatment-related adverse event): 5 (31.3) n (%)
